Key:
[1] = test system: MCF-7, BT-549 and MDA-MB-231 cell lines; test: Wound healing assay (cell migration); assay type: cell-based, human; settings: 1 μM and 3 μM; 24 h
Experimental: The wound-healing assay is simple, inexpensive, and one of the earliest developed methods to study directional cell migration in vitro. This method mimics cell migration during wound healing in vivo.
Protocol: • 1. MCF-7 cells were seeded in RPMI 1460 medium with 10% FCS in […] tissue culture flask and incubated for 24 h. • 2. The cells were trypsinized and seeded at a density of (0.5−2.0)×10^6 per well in a sterile 6 well plate. • 3. The plate was incubated for about 16 h in humidified CO2 incubator (5% CO2) at 37° C. under ambient oxygen levels. […] The required number of cells for a confluent monolayer depends on both the particular cell type and size of dishes. • 4. The cell monolayer in a straight line was scraped evenly to create a “scratch” with a pipette tip. The first image of the scratches was captured before addition of the compound. • 5. Compound A was added at concentrations of 1 μM and 3 μM. • 6. The plates were then kept in the incubator for further incubation. The time frame for incubation was determined empirically for the particular cell type used. • 7. After the incubation, the dish was placed under a phase contrast microscope (Zeiss Axio Observer, Germany), reference point was matched, the photographed regions of the first image were aligned and the second image was captured. For each image distances between one side of the scratch and the other were measured. […]

MDA-MB-468 = test: Cell cycle progression and apoptosis by flow cytometry (sub-G1); assay type: cell-based, human
Experimental: Before analysis, cells were washed twice with PBS to remove the fixative and re-suspended in PBS containing 50 μg/mL propidium iodide and 50 μg/mL RNaseA. After incubation at room temperature (20-35° C.) for 20 min, cells were analyzed using flow cytometry. A Becton Dickinson FACS Calibur flow cytometer (BD, USA) was used for these studies. The argon ion laser set at 488 nm was used as an excitation source. Cells with DNA content between 2n and 4n were designated as being in G1, S and G2/M phases of the cell cycle, as defined by the level of red fluorescence. […] The number of cells in each cell cycle compartment was expressed as a percentage of the total number of cells present. The results are shown in Table 3 and graphically presented in FIG. 3A (MCF-7 cell lines) and FIG. 3B (MDA-MB-231 cell lines).
Comparison of the effect of Compound A and PARP inhibitor BSI-201 (Iniparib developed by Sanofi-Aventis. BSI-201 is prepared in-house) on cell cycle progression and apoptosis was evaluated in two TNBC cell lines. The asynchronous human TNBC cell lines MDA-MB-231 and MDA-MB-468 were seeded in […] tissue culture flask at a density of 0.5×10^6 cells per flask in RPMI 1460 with 10% FCS. After 24 h, cells were treated either with 1.5 and 3.0 μM of Compound A or 50 μM of PARP inhibitor BSI-201 for 72 h. After the incubation cells were harvested (trypsinised) and processed as given in example 6.

HIF-1α = HIF-1α reporter gene based assay (U251 HRE); assay type: cell-based; settings: hypoxia (<1% O2), 0.01-10 μM, 20 h
Source text: 1) U251 HRE: The genetically engineered cells U251 HRE which stably express a recombinant vector in which the Luciferase reporter gene is under control of three copies of a canonical HRE. 2) U251 pGL3: A control cell line contains the firefly Luciferase reporter gene under control of the constitutively active SV40 promoter and enhancer that helps to exclude compounds that inhibit Luciferase expression in a nonspecific and/or HIF-1-independent fashion. These cells expressed high basal levels of Luciferase in normoxic conditions and slightly lower levels in hypoxic conditions.
U251 HRE cells were inoculated into 96 well white flat-bottomed plates at 10000-15000 cells/well in a volume of 180 μL and incubated for 24 h at 37° C., 5% CO2, and ambient O2. Compound A was tested at various concentrations viz. […] After 20 h incubation, the plates were removed and incubated at room temperature, 5% CO2, and ambient O2 for 1.5 h. 40 μL of Bright Glo Luciferase reagent (Promega™, USA) was added and after 3 min, luminescence was measured using a Polar Star Plate Reader (USA) in luminescence mode. Appropriate control cells (U251 pGL3) were treated identically, except that they were treated at 37° C., 5% CO2 and ambient O2. Compound toxicity was assayed using the MTS assay.

Bcl-2 = test: Western blot analysis in MDA-MB-231 cells; assay type: cell-based, human; settings: 1.5 and 4.5 μM, 6, 24 and 30 h
Experimental: The Western blot assay was carried out according to the procedure disclosed in Molecular Cancer Therapeutics, 2007, 6, 918-925 with some modifications.
MCF-7 and MDA-MB-231 cells were seeded in RPMI 1460 medium with 10% FCS in […] tissue culture flask and incubated for 24 h. The cells were treated with Compound A at 1.5 and 4.5 μM. At various time points, i.e. 6, 24 and 30 h the cells were harvested or trypsinized and lysed using lysis buffer (Sigma Aldrich, USA). Protein content was estimated. Lysate was applied to Sodium Dodecyl Sulphate-Polyacrylamide Gel Electrophoresis (SDS-PAGE) followed by western blotting (Molecular Cancer Therapeutics, 2007, 6, 918-925). Western blotting was done using specific antibodies to Bcl-2 and actin. The results are depicted in FIG. 4.

CN1CC[C@@H](c2c(O)cc(O)c3c(=O)cc(-c4ccccc4Cl)oc23)[C@@H]1CO.Cl [Compound A, (+)-trans-2-(2-Chloro-phenyl)-5,7-dihydroxy-8-(2-hydroxymethyl-1-methyl-pyrrolidin-3-yl)-chromen-4-one hydrochloride]
cell migration (wound healing) [1]: potent anti migratory effect
% apoptosis at 72 h (MDA-MB-468; 1.5 μM): 36.09%
% apoptosis at 72 h (MDA-MB-468; 3 μM): 62.5%
expression of HIF-1α (luciferase reporter) (HIF-1α): effectively blocked the expression of HIF-1α in a dose dependent manner
expression of antiapoptotic protein Bcl-2 (Bcl-2): significant down regulation was observed at 30 h
